According to patent US6331551A, “Methods of treating microbial infection and therapeutic formulations therefor” (priority 2000, dated 2001):
≈ marks a conversion by molar mass, not a printed value.

Tests used:
gram negative acne = settings: oral, subsequent to oral tetracycline or erythromycin; Poli et al. 1988; cited from earlier work
[1] = system: Gram positive bacteria, specifically, S. aureus and P. acnes; assay: Disk antibacterial test, Gram positive bacteria; assay type: cell-based
Experimental: (§1) The following seven bacteria were grown on nutrient agar slants for 48 hours at 37° C.: Enterobacter aerogens, Propionibacterium acnes, Pseudomonas aeruginosa, Escherichia coli, Bacillus subtilis, Agrobacterium tumefaciens, and Staphylococcus aureus.
(§2) A bacterial colony from each of the respective slants was suspended in 1 ml sterile deionized water. 0.1 ml of each cell suspension was evenly spread on nutrient agar plates (10×10^5 cells/ml). After 30 min, sclareol and sclareolide-impregnated disks were placed on bacteria-lawned plates. The sclareol and sclareolide used in this experiment were relatively pure samples (greater than 99% pure). Triplicate disks of (10, 100, 500, and 1000 ug/disk) of each sample was applied on to 6 mm diameter (0.3 mm thickness) filter paper disks and air dried. Controls were prepared with respective solvents. Plates were incubated for 24-48 hr at 37° C. The inhibition zones were measured and recorded after 15 hr, up to 48 hr.

bacteria tested = assay: Disk antibacterial test, overall; assay type: cell-based; settings: in general
Experimental: as §1, §2

Penicillium notatum = assay: Antifungal MIC on potato dextrose agar; assay type: cell-based; settings: Penicillium chrysogenum, PDA, 26° C., 48 hr up to one week
Experimental: (§3) The yeast and fungi listed below in Table 2 were grown on potato dextrose agar (PDA) containing different concentrations of sclareol and sclareolide, according to the following method: sclareol or sclareolide (in powder form) was added to pre-measured amounts of PDA medium in petri plates, mixed thoroughly by tilting the petri plate from side to side, and allowed to solidify. The sclareol and […] in preparing the petri plates was of greater than 99% purity. After solidification, the plates were inoculated with 5 mm disks, cut from the outer margin of the actively growing cultures of yeast and fungi and placed in the center of the plate in an inverted position in direct contact with the sclareol/sclareolide impregnated medium. The plates were incubated at 26° C. The plates were monitored periodically to estimate the minimum inhibitory concentration (MIC) based on the growth proliferation from the 5 mm inoculum disk. The results were measured and recorded after 48 hr, up to one week. A summary of the effects of sclareol and sclareolide against the bacteria and fungi tested in Examples 1 and 2 is provided in Table 3. The data is presented as the effect of sclareol and sclareolide on selected microbial cultures, in terms of minimum inhibitory concentration, as measured in μg/ml.

Candida kefyr = assay: Antifungal MIC on potato dextrose agar; assay type: cell-based; settings: Kluyveromyces marxianus, PDA, 26° C., 48 hr up to one week
Experimental: as §3

Saccharomyces cerevisiae = assay: Antifungal MIC on potato dextrose agar; assay type: cell-based; settings: PDA, 26° C., 48 hr up to one week
Experimental: as §3

Aspergillus flavus = assay: Antifungal MIC on potato dextrose agar; assay type: cell-based; settings: PDA, 26° C., 48 hr up to one week
Experimental: as §3

Escherichia coli = assay: Disk zone of inhibition / antibacterial activity; assay type: cell-based; design: key to Zone of inhibition: +++: High inhibition; ++: moderate inhibition; +: low inhibition; -: non inhibition; settings: E. coli; for MIC: Escherichia coli
Experimental: as §1, §2
(§4) A summary of the effects of sclareol and sclareolide against the bacteria and fungi tested in Examples 1 and 2 is provided in Table 3. The data is presented as the effect of sclareol and sclareolide on selected microbial cultures, in terms of minimum inhibitory concentration, as measured in μg/ml.

Staphylococcus aureus = assay: Disk zone of inhibition / antibacterial activity; assay type: cell-based; design: key to Zone of inhibition: +++: High inhibition; ++: moderate inhibition; +: low inhibition; -: non inhibition; settings: S. aureus; for MIC: Staphylococcus aureus
Experimental: as §1, §2, §4

Propionibacterium acnes = assay: Disk zone of inhibition / antibacterial activity; assay type: cell-based; design: key to Zone of inhibition: +++: High inhibition; ++: moderate inhibition; +: low inhibition; -: non inhibition; settings: P. acnes; for MIC: Cutibacterium acnes
Experimental: as §1, §2, §4

Bacillus subtilis = assay: Disk zone of inhibition / antibacterial activity; assay type: cell-based; design: key to Zone of inhibition: +++: High inhibition; ++: moderate inhibition; +: low inhibition; -: non inhibition; settings: for MIC: Bacillus subtilis, B. subtilis; for Zone of inhibition: D. subtilis [sic]
Experimental: as §1, §2, §4

Pseudomonas aeruginosa = assay: Disk zone of inhibition / antibacterial activity; assay type: cell-based; design: key to Zone of inhibition: +++: High inhibition; ++: moderate inhibition; +: low inhibition; -: non inhibition; settings: P. aeruginosa; for MIC: Pseudomonas aeruginosa
Experimental: as §1, §2, §4

[2] = system: Agrobacterium tumefaciens; assay: Disk zone of inhibition / antibacterial activity; assay type: cell-based; design: key to Zone of inhibition: +++: High inhibition; ++: moderate inhibition; +: low inhibition; -: non inhibition; settings: A. tumefaciens; for MIC: Agrobacterium tumefaciens
Experimental: as §1, §2, §4

Enterobacter aerogens = assay: Disk zone of inhibition / antibacterial activity; assay type: cell-based; design: key to Zone of inhibition: +++: High inhibition; ++: moderate inhibition; +: low inhibition; -: non inhibition; settings: E. aerogens; for MIC: Enterobacter
Experimental: as §1, §2, §4

In the case of `CC1(C)S[C@@H]2[C@H](NC(=O)[C@H](N)c3ccccc3)C(=O)N2[C@H]1C(=O)O` [ampicillin], the “effectiveness in treating gram negative acne” value (gram negative acne) is listed as “effective”.

For `C=C[C@](C)(O)CC[C@@H]1[C@@]2(C)CCCC(C)(C)[C@@H]2CC[C@@]1(C)O` [Sclareol, sclareol], the “activity against Gram positive bacteria” value [1] was “more active against Gram positive bacteria”, the “relative activity against the bacteria tested” value (bacteria tested) was “more active than sclareolide” and the MIC (Penicillium notatum) was 1000 µg/mL (≈ 3240 µM). It also gave an MIC (Candida kefyr) of 100 µg/mL (≈ 324 µM), an MIC (Saccharomyces cerevisiae) of 500 µg/mL (≈ 1620 µM) and an MIC (Aspergillus flavus) of 1000 µg/mL (≈ 3240 µM). For the same compound, the sensitivity to treatment (Escherichia coli) was “least sensitive”, the Zone of inhibition (Escherichia coli; 10 ug/disk) was “-” and the Zone of inhibition (Escherichia coli; 100 ug/disk) was “-”. The Zone of inhibition (Escherichia coli; 500 ug/disk) was “+”, the Zone of inhibition (Escherichia coli; 1000 ug/disk) was “++” and the MIC (Escherichia coli) was 500 µg/mL (≈ 1620 µM). The sensitivity to treatment (Staphylococcus aureus) was “more sensitive”, the Zone of inhibition (Staphylococcus aureus; 10 ug/disk) was “+” and the Zone of inhibition (Staphylococcus aureus; 100 ug/disk) was “++”. For the same compound, the Zone of inhibition (Staphylococcus aureus; 500 ug/disk) was “+++”, the Zone of inhibition (Staphylococcus aureus; 1000 ug/disk) was “+++” and the MIC (Staphylococcus aureus) was 50 µg/mL (≈ 162 µM). The MIC (Propionibacterium acnes) was 40 µg/mL (≈ 130 µM), the sensitivity to treatment (Propionibacterium acnes) was “more sensitive” and the Zone of inhibition (Propionibacterium acnes; 10 ug/disk) was “+”. For the same compound, the Zone of inhibition (Propionibacterium acnes; 100 ug/disk) was “+++”, the Zone of inhibition (Propionibacterium acnes; 500 ug/disk) was “+++” and the Zone of inhibition (Propionibacterium acnes; 1000 ug/disk) was “+++”. For the same compound, the MIC (Bacillus subtilis) was 10 µg/mL (≈ 32.4 µM), the Zone of inhibition (Bacillus subtilis; 10 ug/disk) was “+” and the Zone of inhibition (Bacillus subtilis; 100 ug/disk) was “+”. The Zone of inhibition (Bacillus subtilis; 500 ug/disk) was “++”, the Zone of inhibition (Bacillus subtilis; 1000 ug/disk) was “++” and the sensitivity to treatment (Pseudomonas aeruginosa) was “least sensitive”. The Zone of inhibition (Pseudomonas aeruginosa; 10 ug/disk) was “-”, the Zone of inhibition (Pseudomonas aeruginosa; 100 ug/disk) was “+” and the Zone of inhibition (Pseudomonas aeruginosa; 500 ug/disk) was “++”. For the same compound, the Zone of inhibition (Pseudomonas aeruginosa; 1000 ug/disk) was “++”, the MIC (Pseudomonas aeruginosa) was 100 µg/mL (≈ 324 µM) and the Zone of inhibition ([2]; 10 ug/disk) was “+”. For the same compound, the Zone of inhibition ([2]; 100 ug/disk) was “++”, the Zone of inhibition ([2]; 500 ug/disk) was “+++” and the Zone of inhibition ([2]; 1000 ug/disk) was “+++”. For the same compound, the MIC [2] was 10 µg/mL (≈ 32.4 µM), the sensitivity to treatment (Enterobacter aerogens) was “more sensitive” and the Zone of inhibition (Enterobacter aerogens; 10 ug/disk) was “+”. The Zone of inhibition (Enterobacter aerogens; 100 ug/disk) was “+++”, the Zone of inhibition (Enterobacter aerogens; 500 ug/disk) was “+++” and the Zone of inhibition (Enterobacter aerogens; 1000 ug/disk) was “+++”. For the same compound, the MIC (Enterobacter aerogens) was 10 µg/mL (≈ 32.4 µM).

In the case of `CC1(C)S[C@@H]2[C@H](NC(=O)[C@H](N)c3ccc(O)cc3)C(=O)N2[C@H]1C(=O)O` [amoxicillin], the “effectiveness in treating gram negative acne” value (gram negative acne) is given as “effective”.

With `CC1(C)CCCC2(C)C1CCC1(C)OC(=O)CC12` (single isomer, unassigned) [Sclareolide, sclareolide] the “activity against Gram positive bacteria” value [1] was “more active against Gram positive bacteria”, the MIC (Penicillium notatum) was 1000 µg/mL (≈ 3990 µM) and the MIC (Candida kefyr) was 400 µg/mL (≈ 1600 µM). For the same compound, the MIC (Saccharomyces cerevisiae) was 500 µg/mL (≈ 2000 µM), the MIC (Aspergillus flavus) was 1000 µg/mL (≈ 3990 µM) and the sensitivity to treatment (Escherichia coli) was “least sensitive”. The Zone of inhibition (Escherichia coli; 10 ug/disk) was “-”, the Zone of inhibition (Escherichia coli; 100 ug/disk) was “-” and the Zone of inhibition (Escherichia coli; 500 ug/disk) was “+”. The Zone of inhibition (Escherichia coli; 1000 ug/disk) was “++”, the MIC (Escherichia coli) was 500 µg/mL (≈ 2000 µM) and the sensitivity to treatment (Staphylococcus aureus) was “more sensitive”. The Zone of inhibition (Staphylococcus aureus; 10 ug/disk) was “+”, the Zone of inhibition (Staphylococcus aureus; 100 ug/disk) was “++” and the Zone of inhibition (Staphylococcus aureus; 500 ug/disk) was “+++”. For the same compound, the Zone of inhibition (Staphylococcus aureus; 1000 ug/disk) was “+++”, the MIC (Staphylococcus aureus) was 50 µg/mL (≈ 200 µM) and the MIC (Propionibacterium acnes) was 40 µg/mL (≈ 160 µM). The sensitivity to treatment (Propionibacterium acnes) was “more sensitive”, the Zone of inhibition (Propionibacterium acnes; 10 ug/disk) was “+” and the Zone of inhibition (Propionibacterium acnes; 100 ug/disk) was “+++”. For the same compound, the Zone of inhibition (Propionibacterium acnes; 500 ug/disk) was “+++”, the Zone of inhibition (Propionibacterium acnes; 1000 ug/disk) was “+++” and the MIC (Bacillus subtilis) was 10 µg/mL (≈ 39.9 µM). The Zone of inhibition (Bacillus subtilis; 10 ug/disk) was “+”, the Zone of inhibition (Bacillus subtilis; 100 ug/disk) was “+” and the Zone of inhibition (Bacillus subtilis; 500 ug/disk) was “+”. For the same compound, the Zone of inhibition (Bacillus subtilis; 1000 ug/disk) was “++”, the sensitivity to treatment (Pseudomonas aeruginosa) was “least sensitive” and the Zone of inhibition (Pseudomonas aeruginosa; 10 ug/disk) was “-”. For the same compound, the Zone of inhibition (Pseudomonas aeruginosa; 100 ug/disk) was “-”, the Zone of inhibition (Pseudomonas aeruginosa; 500 ug/disk) was “++” and the Zone of inhibition (Pseudomonas aeruginosa; 1000 ug/disk) was “++”. For the same compound, the MIC (Pseudomonas aeruginosa) was 500 µg/mL (≈ 2000 µM), the Zone of inhibition ([2]; 10 ug/disk) was “+” and the Zone of inhibition ([2]; 100 ug/disk) was “++”. The Zone of inhibition ([2]; 500 ug/disk) was “+++”, the Zone of inhibition ([2]; 1000 ug/disk) was “+++” and the MIC [2] was 10 µg/mL (≈ 39.9 µM). For the same compound, the sensitivity to treatment (Enterobacter aerogens) was “more sensitive”, the Zone of inhibition (Enterobacter aerogens; 10 ug/disk) was “+” and the Zone of inhibition (Enterobacter aerogens; 100 ug/disk) was “++”. For the same compound, the Zone of inhibition (Enterobacter aerogens; 500 ug/disk) was “+++”, the Zone of inhibition (Enterobacter aerogens; 1000 ug/disk) was “+++” and the MIC (Enterobacter aerogens) was 10 µg/mL (≈ 39.9 µM).
